Legend:
[1] = test system: P. jokahamae jokahamae Radoszkowski worker; assay: Spray on worker collecting Zelkova sap; format: in vivo, Polistes jokahamae jokahamae Radoszkowski
Experimental: (§1) The experiment involving a worker group of Polistes jokahamae jokahamae Radoszkowski on the exterior wall of a nest found in the campus of Faculty of Agriculture, Kochi University, located on 200 Otsu, Monobe, Nankoku City, Kochi Prefecture, was conducted on Jul. 13, 2015, and the experiment involving a worker of P. jokahamae jokahamae Radoszkowski which collected sap bled from sucking mark by adult Cryptotympana facialis of Zelkova tree stem planted in a private house in Fuseishi-cho, Takamatsu City, Kagawa Prefecture was conducted on July 19 to 22, 2015. In addition, the experiment involving a worker group of P. chinensis antennalis Pe'rez on the exterior wall of a nest found on a branch of a cheesewood planted at a bank of Noda pond located at Fuseishi-cho, Takamatsu City, Kagawa Prefecture was conducted on Jul. 30, 2015.
(§2) The experiment was conducted in accordance with the above-described Example 1(1) involving a Vespa mandarinia worker, distilled water as a control example spray and benzyl alcohol as a test liquid example spray were sequentially sprayed on a test object group or a test object worker by using a sprayer, and the behavior from immediately after spraying up to 1 minute later was respectively recorded.

[2] = test system: P. chinensis antennalis Pe'rez worker group; assay: Spray on worker group on nest; format: in vivo; settings: 9:02, 1 minute after spraying benzyl alcohol; 32 workers before
Experimental: as §1
as §2, with “recorded. […]” for “recorded.”

[3] = test system: Vespa analis insularis (Fabricius) nest; assay: Spraying on nest surface, philopatry and homing, Experiment 2; format: in vivo
Text: The inventors investigated the worker's philopatry and homing circumstance to the nest as follows. After the above-described experiment 1, benzyl alcohol was intermittently sprayed three times on the entire surface of the same nest of Vespa analis insularis (Fabricius) by using a sprayer equipped with a nozzle having a length of 1.5 m. An adult wasp on the nest surface, worker entering and leaving the nest holes and worker coming close to the nest were shot with a video camera. The experiment was started at 14:01:30 and finished at 14:10. The numbers of the adult wasp on the nest surface and in the nest were counted immediately after the experiment. The number of adult wasp in the nest was counted by inserting the whole nest in a paper bag, sealing the paper bag, and then deconstructing the nest.

[4] = test system: Polistes jokahamae jokahamae Radoszkowski worker group; assay: Spray on worker group on nest surface; format: in vivo
Experimental: as §1, §2

[5] = test system: Vespa analis insularis (Fabricius) worker; assay: Black ball nest disturbance, Experiment 1; format: in vivo
Experimental: The experiment was conducted with utilizing a nest of Vespa analis insularis (Fabricius) built under an awning of a private house in Iida-cho Takamatsu City on Sep. 9, 2015.
A black ball was hung on the tip of a fishing rod having a length of 11 m, and distilled water was sprayed on the entire surface of the black ball. While the surface of the nest was tapped with the tip of the fishing rod once every about 10 seconds, the worker's action against the black ball was taken and recorded with a video camera for 5 minutes. When the nest was hit, the black ball was in close proximity to the nest as the black ball was about to touch the nest, and when the nest was not hit, the black ball was kept still in the air about 50 cm away from the nest surface. The thus recorded video footage was replayed, and the number of worker which flew to and alighted on the hemisphere surface of the black ball for attack was counted. Similar experiments were conducted with respect to the black ball prepared by spraying benzyl alcohol on the entire surface of a new black ball as “Test liquid example 1” and the black ball prepared by spraying benzyl alcohol on the entire surface of the control example black ball on which alarm pheromone was adsorbed by the worker's attack as “Test liquid example 2”. In addition, a picture of the video footage 234 seconds after the start of the nest disturbance is shown as FIG. 3. FIG. 3A is an image of the control example that distilled water was used, FIG. 3B is an image of the Test liquid example 1, and FIG. 3C is an image of the Test liquid example 2.

[6] = after first spray, 14:01:30 to 14:02:20
[7] = after second spray, 14:02:20 to 14:04:30
[8] = after third spray, 14:04:30 to 14:10:00

OCc1ccccc1 [Benzyl alcohol, benzyl alcohol]
Effective (number of worker) ([1]; 10 workers collecting sap): 10 | No response (number of worker) ([1]; 10 workers collecting sap): 0 | time of flapping behavior before the worker flew away ([1]; 10 workers, or without flapping): ≤ 1 s | Number of P. chinensis antennalis Pe'rez on nest [2]: 0 | adult wasps on nest surface and in nest at the end of the experiment ([3]; 14:10, after three sprays): All of the adult wasps got away from the nest | Entered nest [3, 6]: 5 | Flew away from nest [3, 6]: 15 | Flew to and alighted on nest surface and then flew away [3, 6]: 1 | Flew to and came close to nest surface and then flew away [3, 6]: 2 | Entered nest [3, 7]: 0 | Flew away from nest [3, 7]: 10 | Flew to and alighted on nest surface and then flew away [3, 7]: 2 | Flew to and came close to nest surface and then flew away [3, 7]: 6 | Entered nest [3, 8]: 0 | Flew away from nest [3, 8]: 2 | Flew to and alighted on nest surface and then flew away [3, 8]: 4 | Flew to and came close to nest surface and then flew away [3, 8]: 55 | Number of P. jokahamae jokahamae Radoszkowski on nest surface ([4]; 10:02, 1 minute after spraying benzyl alcohol once, 11 workers before): 0 | time within which all workers flew away from the nest after spraying ([4]; group of 11 workers): ≤ 10 s | number of worker alighted on hemisphere surface of black ball for attack ([5]; 30 s, benzyl alcohol on ball with adsorbed alarm pheromone): 0 | number of worker alighted on hemisphere surface of black ball for attack ([5]; 30 s, benzyl alcohol on new black ball): 0 | number of worker alighted on hemisphere surface of black ball for attack ([5]; 60 s, benzyl alcohol on ball with adsorbed alarm pheromone): 1 | number of worker alighted on hemisphere surface of black ball for attack ([5]; 60 s, benzyl alcohol on new black ball): 0 | number of worker alighted on hemisphere surface of black ball for attack ([5]; 90 s, benzyl alcohol on ball with adsorbed alarm pheromone): 0 | number of worker alighted on hemisphere surface of black ball for attack ([5]; 90 s, benzyl alcohol on new black ball): 2 | number of worker alighted on hemisphere surface of black ball for attack ([5]; 120 s, benzyl alcohol on ball with adsorbed alarm pheromone): 0 | number of worker alighted on hemisphere surface of black ball for attack ([5]; 120 s, benzyl alcohol on new black ball): 1 | number of worker alighted on hemisphere surface of black ball for attack ([5]; 150 s, benzyl alcohol on ball with adsorbed alarm pheromone): 0 | number of worker alighted on hemisphere surface of black ball for attack ([5]; 150 s, benzyl alcohol on new black ball): 0 | number of worker alighted on hemisphere surface of black ball for attack ([5]; 180 s, benzyl alcohol on ball with adsorbed alarm pheromone): 0 | number of worker alighted on hemisphere surface of black ball for attack ([5]; 180 s, benzyl alcohol on new black ball): 0 | number of worker alighted on hemisphere surface of black ball for attack ([5]; 210 s, benzyl alcohol on ball with adsorbed alarm pheromone): 0 | number of worker alighted on hemisphere surface of black ball for attack ([5]; 210 s, benzyl alcohol on new black ball): 0 | number of worker alighted on hemisphere surface of black ball for attack ([5]; 240 s, benzyl alcohol on ball with adsorbed alarm pheromone): 0 | number of worker alighted on hemisphere surface of black ball for attack ([5]; 240 s, benzyl alcohol on new black ball): 0 | number of worker alighted on hemisphere surface of black ball for attack ([5]; 270 s, benzyl alcohol on ball with adsorbed alarm pheromone): 0 | number of worker alighted on hemisphere surface of black ball for attack ([5]; 270 s, benzyl alcohol on new black ball): 0 | number of worker alighted on hemisphere surface of black ball for attack ([5]; 300 s, benzyl alcohol on ball with adsorbed alarm pheromone): 0 | number of worker alighted on hemisphere surface of black ball for attack ([5]; 300 s, benzyl alcohol on new black ball): 0 | repellent effect ([5]; in vivo): strong repellent effect

Source: patent publication US11470844B2, “Vespidae wasp repellent” (KINP CO., LTD, priority 2015, dated 2022)
